Test results published in patent US20240398737A1, “FUNCTIONALIZED LONG-CHAIN HYDROCARBON MONO- AND DI-CARBOXYLIC ACIDS AND DERIVATIVES THEREOF, AND THEIR USE FOR THE PREVENTION OR TREATMENT OF DISEASE” (Espervita Therapeutics, Inc., priority 2021, published 2024).
Blank lines part the entries; values can stand above or below the molecule they belong to.

Columns and labels:
[1] = system: human hematopoietic stem and progenitor cells; assay: Megakaryopoiesis and platelet production in cultured human hematopoietic stem and progenitor cells; type: cell-based; details: added day 0, 8 days culture, I-32 and I-1 30 μM, ABT-737 6 μmol
Protocol: Materials and Methods. Hematopoietic stem and progenitor cells, identified as viable CD45+ CD34+ cells, were isolated from peripheral blood of healthy donors by a method known in the art (see Ivetic N, Nazi I, Karim N et al. Producing megakaryocytes from a human peripheral blood source. Transfusion 2016; 56:1066-74). These isolated cells were then analyzed for purity before being expanded for four days using a commercial supplement to increase their cell population. After expansion, the cells were analyzed for purity, washed, and stimulated with a saturating concentration of thrombopoietin (20 ng/mL) and stem cell factor (50 ng/mL) to begin megakaryopoiesis. Compound I-32 and Compound I-1 were added at this timepoint at a concentration of 30 μM. The cells were then cultured for 8 days to develop into megakaryocytes and analyzed via flow cytometry to assess their number, maturity, and platelet count as defined by CD41a, CD42b and Calcein-AM expression. In addition, Compound I-32 and Compound I-1 were added to cells during the later stages of development (day 6) to assess their impact on maturation. ABT-737 (6 μmol) was used as a positive control and a DMSO vehicle control (<0.15% v/v) was the negative control. All counts are normalized to a media control (PBS) as a reference for basic cell growth.
Statistical analysis. Statistical analyses were carried out by comparing effects on measured parameters in comparison to vehicle control. A value of […] (One-way ANOVA multiple comparisons) was considered as significant.
Two isolations were performed from two healthy donors (2 males) and used to assess the impacts of Compound I-32 and Compound I-1. For one of the isolations, enough expanded hematopoietic stem and progenitor cells (HSPC) (Experiment 1) were obtained so that the addition of the compounds on day 6 was also performed along with the initial experiment. For the other experiment (Experiment 2) only an 8-day incubation was performed.
All results were normalized to a reference media (PBS) and Compound I-32 and Compound I-1 were compared to a vehicle control. Reference compound ABT-737 is a known BCL-2 inhibitor and was used a positive control. Results in FIGS. 25A-25J are the summary of a single experiments conducted in triplicates. No statistical inhibition was detected for Compound I-32 or Compound I-1 (p>0.05 one-way ANOVA).

[2] = system: Mouse primary hepatocytes; assay: 14C-acetate incorporation into total lipids in mouse primary hepatocytes; type: cell-based; details: incorporation of 14C-acetate in primary mouse hepatocyte total lipids, 4 hours; for inhibition at 100 µM: read-out: % change from control at 100 μM ± SEM(n)
Protocol: After perfusion, collagen digested liver cells were re-suspended in William's E media (11 mM glucose) (Gibco) supplemented with 10% fetal bovine serum (FBS) (Gibco), 2 mM L-glutamine (Gibco) and 1% Antibiotic-Antimycotic (Gibco) mixture and seeded in white opaque 96-well plates. On the following day, the cells were serum-starved for 2 hours, then treated with 0 μM, 0.1 μM, 0.3 μM, 0.5 μM, 1 μM, 3 μM, 10 μM, and 100 μM of Compound I-32, Compound I-1, Compound III-1 or Reference Compound (e.g., any of Compounds A-E or bempedoic acid) in the presence of ^14C-Acetate (1 μCi/ml, PerkinElmer). Each of Compound I-32, Compound I-1, Compound III-1, and Reference Compound was solubilized in 100% DMSO to a final concentration of 100 mM stock solution. In the experimental condition, the stock solution was diluted in serum free media (William's E media (11 mM glucose) (Gibco), 2 mM L-glutamine (Gibco) and 1% Antibiotic-Antimycotic) to yield the desired concentration of each compound. […] After 4 hours of treatment, the plates were washed two times with PBS (×1) and 100 μL microscint fluid (Microscint 0, part #601361) was added in each well. Plates were wrapped with aluminum foil and were shaken at 250 rpm for 2 h. After 2 h of shaking, ^14C incorporation into lipid was determined by liquid scintillation counting using a TopCount NXT Microplate Scintillation and Luminescence Counter (Perkin Elmer).
The effects of Compound I-32, Compound I-1, and Compound III-1 on mouse primary hepatocyte lipogenesis are represented in Table 13. Each Compound was assayed at a concentration of 0 μM (vehicle control), 0.1 μM, 0.3 μM, 0.5 μM, 1 μM, 3 μM, 10 μM, and 100 μM, unless otherwise noted. Statistically significant inhibition was determined by one-way ANOVA and Dennett's post hoc test where appropriate. […] IC50 values were determined by nonlinear regression. All statistical analyses were carried out using GraphPad Prism 8 software. A p-value of less than or equal 0.05 was considered significant.

human ACLY = human ACLY (Homo sapiens (Human), UniProt P53396); assay: ATP-citrate lyase (ACLY) enzymatic assay (ADP-Glo); type: biochemical; details: recombinant human ACLY; 10 concentrations from 300 μM; Runs 1-3; read-out: Compound IC50 (M) ACLY
Protocol: ATP citrate lyase was obtained from Sino Biological Inc. Cat #11769-H07B, Lot #LC08DE1701. It was prepared from a DNA sequence encoding the human ACLY (P53396) (Met 1-Met 1101) expressed in Baculovirus-Insect Cells, with a polyhistidine tag at the N-terminus. The recombinant human ACLY consists of 1120 amino acids and has a calculated molecular mass of 123 kDa. It migrates as an approximately 110 kDa band in SDS-PAGE under reducing conditions. The enzyme came as a lyophilized powder in sterile 20 mM Tris, 500 mM NaCl, pH 8.0, 10% glycine. Normally 5%-8% trehalose and mannitol are added as protectants before lyophilization. The recombinant human ACLY from Sino Biological was formulated in 45 mM Tris-HCl, pH 8.0, 124 mM NaCl, 2.4 mM KCl, 18 mM glutathione, 10% glycerol, and 3 mM DTT.
To detect ADP produced from ACL assay, the ADP-Glo™ assay format from Promega, Madison, WI, was used, to detect the conversion of ATP to ADP. […] This assay is performed in two steps: i) after the ACL-mediated enzymatic reaction that utilizes ATP and produces ADP, ADP-Glo™ Reagent is added to terminate the kinase reaction and deplete the remaining ATP, and ii) the Kinase Detection Reagent is added to convert ADP to ATP and allow the newly synthesized ATP to be measured using a luciferase/luciferin reaction. The light generated, measured in a luminometer, correlates to the amount of ADP generated in the ACL assay, which is indicative of ACL activity.
Data represent nM or μM ADP produced, % Activity (relative to no inhibitor controls), and curve fits were performed by GraphPad Prism software. The IC50 concentration-response curves were generated for ADPGlo™ using recombinant human ACL from Sino Biologicals Inc.

[3] = Synthesis of CoA derivatives in rat liver microsomes (LCMS detection); type: in vitro ADME; details: 1 mM substrate, 30 min sample
Protocol: Reaction products were eluted using the gradient shown below: […]
Formation and detection of the Co-A derivatives of Compounds 1-32, 1-61, I-1 or III-1 in rat liver microsomes: 1 mM of each compound (Compounds I-32, I-61, I-1 or III-1) or palmitic acid (control) were used as substrate in the rat microsomal preparation for 0 and 30 min and extracted as described above. […] Further confirmation was obtained by exposing the compound to a collision energy causing the characteristic neutral loss of 3′-phosphonucleoside diphosphate (507 Da) producing the fragment ion 499.3 m/z. There was no evidence of the CoA derivative in the time 0 min sample.

Sequence of human ACLY (P53396 whole entry): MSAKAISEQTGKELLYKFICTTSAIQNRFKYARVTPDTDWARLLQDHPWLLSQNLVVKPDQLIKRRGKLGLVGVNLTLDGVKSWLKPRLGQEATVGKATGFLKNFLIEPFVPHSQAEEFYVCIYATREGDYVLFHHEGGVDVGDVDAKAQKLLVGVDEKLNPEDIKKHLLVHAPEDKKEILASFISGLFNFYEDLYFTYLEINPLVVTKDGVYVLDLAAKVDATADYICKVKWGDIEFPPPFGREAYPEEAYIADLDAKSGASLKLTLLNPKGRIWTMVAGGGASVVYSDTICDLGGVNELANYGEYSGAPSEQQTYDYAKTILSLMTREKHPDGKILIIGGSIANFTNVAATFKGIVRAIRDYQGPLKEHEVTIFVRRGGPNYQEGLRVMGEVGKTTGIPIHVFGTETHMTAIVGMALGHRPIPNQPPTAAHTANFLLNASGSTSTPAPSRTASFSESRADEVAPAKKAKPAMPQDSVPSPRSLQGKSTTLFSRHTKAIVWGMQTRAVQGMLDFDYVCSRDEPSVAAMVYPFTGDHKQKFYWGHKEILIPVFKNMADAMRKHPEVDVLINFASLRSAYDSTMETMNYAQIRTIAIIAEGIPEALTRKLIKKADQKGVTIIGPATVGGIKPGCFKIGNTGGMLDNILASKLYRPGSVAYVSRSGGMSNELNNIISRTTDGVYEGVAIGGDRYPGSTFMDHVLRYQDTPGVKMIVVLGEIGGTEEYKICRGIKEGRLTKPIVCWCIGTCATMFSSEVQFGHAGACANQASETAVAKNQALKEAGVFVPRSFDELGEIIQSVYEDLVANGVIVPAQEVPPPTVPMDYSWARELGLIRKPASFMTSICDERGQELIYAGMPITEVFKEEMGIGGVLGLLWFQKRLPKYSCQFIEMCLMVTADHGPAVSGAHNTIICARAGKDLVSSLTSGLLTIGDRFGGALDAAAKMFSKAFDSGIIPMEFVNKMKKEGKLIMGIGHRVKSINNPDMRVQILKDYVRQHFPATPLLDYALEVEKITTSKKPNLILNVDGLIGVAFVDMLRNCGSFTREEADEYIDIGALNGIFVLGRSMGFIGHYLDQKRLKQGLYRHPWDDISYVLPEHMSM

SMILES: CN(C)CC[C@H](CSc1ccccc1)Nc1ccc(S(=O)(=O)NC(=O)c2ccc(N3CCN(Cc4ccccc4-c4ccc(Cl)cc4)CC3)cc2)cc1[N+](=O)[O-] [ABT-737, reference compound]
CD41a+ mean fluorescence intensity (MFI), normalized [1]: 46±34%
Normalized cell size (CD41a+) [1]: 81±6%
CD41a CD42b+ counts (mature megakaryocytes), normalized to reference media control ([1]; average±SD): 2±1%
CD41a+ cells (megakaryocytes), normalized to reference media control ([1]; average±SD): 9±5%
Platelet counts, normalized to reference media control ([1]; average±SD): 3±3%

SMILES: CC(C)(CO)CCCCC(=O)CCCCC(C)(C)CO [A]
% change from control at 100 μM ± SEM(n) [2]: −41 ± 4.8 (n = 2) %

SMILES: CC(C)(CCCCCC(O)CCCCCC(C)(C)C(=O)O)C(=O)O [BA, Bempedoic acid]
% change from control at 100 μM ± SEM(n) [2]: −79 ± 1.5 (n = 4) %

SMILES: COc1ccc(-c2ccccc2)cc1NS(=O)(=O)c1cc(Cl)cc(Cl)c1O [BMS-303141, reference compound]
IC50 (human ACLY): 4.45e-07 M

SMILES: CC(C)(CO)CCCCC(=O)CCCCC(C)(C)C(=O)O [B]
IC50 [2]: 25.6 µM
inhibition at 100 µM [2]: 69 ± 2.3%

SMILES: CC(C)(CCCCCC(=O)CCCCCC(C)(C)C(=O)O)C(=O)O [C]
inhibition at 100 µM [2]: 76 ± 41%

SMILES: CC(C)(CO)CCCCCC(=O)CCCCCC(C)(C)CO [D]
% change from control at 100 μM ± SEM(n) [2]: −90 ± 1.5 (n = 4) %

SMILES: CC(C)(CCCCCCC(=O)CCCCCCC(C)(C)C(=O)O)C(=O)O [E]
% change from control at 100 μM ± SEM(n) [2]: −62 ± 4.5 (n = 4) %

SMILES: CC(C)(CCCCCCCCCCCC(C)(C)C(=O)O)C(=O)O [F]
% change from control at 100 μM ± SEM(n) [2]: −91 ± 3.6 (n = 4) %

Formation of the CoA derivative (LCMS detection, fragmentation confirmation) [3]: could not be confirmed
SMILES: CC(C)(CCCc1ccccc1CCCC(C)(C)C(=O)SCCNC(=O)CCNC(=O)[C@H](O)C(C)(C)COP(=O)(O)OP(=O)(O)OC[C@H]1O[C@@H](n2cnc3c(N)ncnc32)[C@H](O)[C@@H]1OP(=O)(O)O)C(=O)O [I-61—CoA]

SMILES: CC(C)(CCCc1ccc(CCCC(C)(C)C(=O)O)cc1)C(=O)O [III-1]
% change from control at 100 μM ± SEM(n) [2]: −70 ± 2.2 (n = 4) %
